Data from US20080131384A1, “External Preparation for Skin Whitening, Whitening Agent, Whitening Method and Method of Production of External Preparation for Skin Whitening” (Shiseido Company, Ltd., priority 2004, published 2008).

Tested on: Mouse B16 melanoma cells
Test: Visual determination of melanin amount and number of cells in cultured B16 melanoma cells
Assay type: cell-based
Set-up: key: Good: whiter in comparison with the reference, and determined that the amount of melanin was small; Fair: slightly whiter in comparison with the reference, and determined that the amount of melanin was slightly small; Poor: equally white in comparison with the reference, and determined that the amount of melanin was almost the same
Details: 3 days incubation
Protocol: Mouse B16 melanoma cells were used. These were cultured in Eagle's MEM containing 10% FBS and theophylline (0.09 mg/ml) in a CO2 incubator (95% air, 5% carbon dioxide) at 37° C. After 24 hours of culture, the sample solution was added to give a final concentration of 2×10^−3 to 2×10^−5 weight % (as dried extract concentration). After further incubation for 3 days, the amount of melanin was determined visually by the following method.
A diffuser plate was placed on the lid of a well plate, the number of cells and the amount of melanin in the cells were observed by an inverted microscope and compared with a reference sample to which no plant extracts were added. The results are shown in Table I. Further, as a positive control, a similar examination as the above was performed for arbutin, which is already known to have an action suppressing melanin production.
Judgment Criteria • Good: whiter in comparison with the reference, and determined that the amount of melanin was small. • Fair: slightly whiter in comparison with the reference, and determined that the amount of melanin was slightly small. • Poor: equally white in comparison with the reference, and determined that the amount of melanin was almost the same.

## OC[C@H]1O[C@@H](Oc2ccc(O)cc2)[C@H](O)[C@@H](O)[C@@H]1O [Arbutin, arbutin]
Sample concentration 0.001 mass %
  Visual Evaluation of Melanin Production: Fair
Sample concentration 0.002 mass %
  Visual Evaluation of Melanin Production: Good
